Structures are written as SMILES. Some results are limits rather than exact numbers.

This passage reports inhibition and IC50 results from ChEMBL document CHEMBL5137114, “Discovery of IHMT-MST1-58 as a Novel, Potent, and Selective MST1 Inhibitor for the Treatment of Type 1/2 Diabetes” (J Med Chem, 2022).

The test system of one assay is RAW264.7. In words: Inhibition of MST1 in mouse RAW264.7 cells assessed as reduction in H2O2-stimulated MST1/MST2 autophosphorylation at T183/T180 residues preincubated for 2 hrs followed by H2O2 addition for 30 mins by Western blotting analysis. The format is cell-based. As to conditions: dose 0.1-10 µM, time 2.5 hrs, DDE = dose-dependent effect.
Consider `CN1C(=O)c2sccc2N(C)c2nc(Nc3ccc(S(N)(=O)=O)cc3)ncc21`, for which the inhibition entry was “Dde”.

The next assay relates to RAW264.7. Put plainly: Inhibition of MST1 in mouse RAW264.7 cells assessed as reduction in H2O2-stimulated MOB1 phosphorylation at T35 residue preincubated for 2 hrs followed by H2O2 addition for 30 mins by Western blotting analysis. The format is cell-based. As to conditions: dose 0.1-10 µM, time 2.5 hrs, DDE = dose-dependent effect. On the technique in general: Immunoblotting shows a protein as a band on a membrane.
In the case of `CN1C(=O)c2sccc2N(C)c2nc(Nc3ccc(S(N)(=O)=O)cc3)ncc21`, the inhibition result is “Dde”.

The next assay addresses T1, Serine/threonine-protein kinase 4 (Homo sapiens, UniProt Q13043).
T1 sequence (Q13043 whole entry): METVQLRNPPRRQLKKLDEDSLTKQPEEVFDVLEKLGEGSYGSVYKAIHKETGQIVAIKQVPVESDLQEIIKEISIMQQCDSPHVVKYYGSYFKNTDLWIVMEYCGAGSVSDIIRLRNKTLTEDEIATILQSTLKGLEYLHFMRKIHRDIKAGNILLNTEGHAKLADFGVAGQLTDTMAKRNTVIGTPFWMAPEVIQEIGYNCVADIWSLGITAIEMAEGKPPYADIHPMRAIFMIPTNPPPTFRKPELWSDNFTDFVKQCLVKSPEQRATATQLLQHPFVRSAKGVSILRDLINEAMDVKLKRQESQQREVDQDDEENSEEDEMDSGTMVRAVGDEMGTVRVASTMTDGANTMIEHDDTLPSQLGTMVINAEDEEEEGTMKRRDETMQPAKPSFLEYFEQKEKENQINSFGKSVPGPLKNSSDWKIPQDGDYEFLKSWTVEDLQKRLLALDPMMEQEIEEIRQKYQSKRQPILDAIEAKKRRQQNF
Put plainly: Inhibition of recombinant full length N-terminal GST -tagged human MST1 expressed in baculovirus infected Sf9 insect cells using KKSRGDYMTMQIG as substrate incubated for 1 hr in presence of ATP by ADP-Glo luminescent assay.
Settings: not given
Consider `COc1ccccc1C1C(=O)N(C)c2cnc(Nc3ccc(S(N)(=O)=O)cc3)nc2N1C` (stereo not given), for which the IC50 (commonly the point on the concentration scale where inhibition reaches its midpoint) is 0.251 µM.

In the case of `CN1CC(=O)N(C)c2cnc(Nc3ccc(S(N)(=O)=O)cc3)nc21`, the IC50 was found to be 0.495 µM.

Take `CN1C(=O)C(c2ccccc2)N(C)c2nc(Nc3ccc(S(N)(=O)=O)cc3)ncc21` (stereo not given): the concentration for half-maximal inhibition (IC50) came to 0.383 µM.

`CC1C(=O)N(C)c2cnc(Nc3ccc(S(N)(=O)=O)cc3)nc2N1C` (stereo not given): the IC50 came out at 0.313 µM.

On to `CN1C(=O)C2(CCCCC2)N(C)c2nc(Nc3ccc(S(N)(=O)=O)cc3)ncc21`, for which the IC50 turned out to be 0.272 µM.

With `CN1C(=O)c2sccc2N(C)c2nc(Nc3ccc(S(N)(=O)=O)cc3)ncc21`, the half-inhibitory concentration (IC50) turned out to be 0.104 µM.

Turning to `CN1C(=O)C(c2ccc(F)cc2)N(C)c2nc(Nc3ccc(S(N)(=O)=O)cc3)ncc21` (stereo not given), the half-maximal inhibitory concentration (IC50) was 1.77 µM.

Consider `CC(C)C1C(=O)N(C)c2cnc(Nc3ccc(S(N)(=O)=O)cc3)nc2N1C` (stereo not given), for which the IC50 is 0.254 µM.

As to `CN1C(=O)C(CC2CC2)N(C)c2nc(Nc3ccc(S(N)(=O)=O)cc3)ncc21` (stereo not given), the IC50 turned out to be 0.211 µM.

In the case of `Cc1ccccc1C1C(=O)N(C)c2cnc(Nc3ccc(S(=O)(=O)NCC4CC4)cc3)nc2N1C` (stereo not given), the IC50 amounted to 0.06 µM.

For `COc1cccc(C2C(=O)N(C)c3cnc(Nc4ccc(S(N)(=O)=O)cc4)nc3N2C)c1` (stereo not given), the IC50 was determined as 0.954 µM.

Take `CN1C(=O)C(c2cccc(Cl)c2)N(C)c2nc(Nc3ccc(S(N)(=O)=O)cc3)ncc21` (stereo not given): the IC50 was determined as 0.989 µM.

As for `Cc1ccc(F)cc1C1C(=O)N(C)c2cnc(Nc3ccc(S(N)(=O)=O)cc3)nc2N1C` (stereo not given), the IC50 worked out at 0.168 µM.

As for `CN1C(=O)C(c2ccccc2Br)N(C)c2nc(Nc3ccc(S(N)(=O)=O)cc3)ncc21` (stereo not given), the IC50 was 0.057 µM.

For `Cc1ccccc1C1C(=O)N(C)c2cnc(Nc3ccc(S(=O)(=O)NC4CC4)cc3)nc2N1C` (stereo not given), the IC50 was 0.053 µM.

For the compound `CNS(=O)(=O)c1ccc(Nc2ncc3c(n2)N(C)C(c2ccccc2C)C(=O)N3C)cc1` (stereo not given), the IC50 came out at 0.104 µM.

Turning to `Cc1ccccc1C1C(=O)N(C)c2cnc(Nc3ccc(S(=O)(=O)N(C)C)cc3)nc2N1C` (stereo not given), the half-inhibitory concentration (IC50) is 0.219 µM.

As for `CN1C(=O)C(Cc2ccccc2)N(C)c2nc(Nc3ccc(S(N)(=O)=O)cc3)ncc21` (stereo not given), the IC50 was > 10 µM.

Consider `CN1C(=O)C(c2c(F)cccc2F)N(C)c2nc(Nc3ccc(S(=O)(=O)N(C)C)cc3)ncc21` (stereo not given), for which the IC50 is 0.181 µM.

For `CCNS(=O)(=O)c1ccc(Nc2ncc3c(n2)N(C)C(c2ccccc2C)C(=O)N3C)cc1` (stereo not given), the IC50 is 0.119 µM.

As to `CN1C(=O)C(c2cccc(C(F)(F)F)c2)N(C)c2nc(Nc3ccc(S(N)(=O)=O)cc3)ncc21` (stereo not given), the IC50 came out at 2.71 µM.

With `CCC1C(=O)N(C)c2cnc(Nc3ccc(S(N)(=O)=O)cc3)nc2N1C` (stereo not given), the half-inhibitory concentration (IC50) amounted to 0.479 µM.

Regarding `CN1C(=O)C(c2ccccc2Cl)N(C)c2nc(Nc3ccc(S(N)(=O)=O)cc3)ncc21` (stereo not given), the IC50 came to 0.129 µM.

As to `Cc1ccccc1C1C(=O)N(C)c2cnc(Nc3ccc(C4(C#N)CC4)cc3)nc2N1C` (stereo not given), the half-inhibitory concentration (IC50) came to 0.256 µM.

As for `Cc1c(F)cccc1C1C(=O)N(C)c2cnc(Nc3ccc(S(N)(=O)=O)cc3)nc2N1C` (stereo not given), the IC50 is 0.419 µM.

On to `CNS(=O)(=O)c1ccc(Nc2ncc3c(n2)N(C)C(c2c(F)cccc2F)C(=O)N3C)cc1` (stereo not given), for which the IC50 is 0.318 µM.

As for `CCc1ccccc1C1C(=O)N(C)c2cnc(Nc3ccc(S(N)(=O)=O)cc3)nc2N1C` (stereo not given), the half-maximal inhibitory concentration (IC50) amounted to 0.051 µM.

As for `Cc1ccccc1C1C(=O)N(C)c2cnc(Nc3ccc(C(C)(C)C#N)cc3)nc2N1C` (stereo not given), the 50% inhibitory concentration (IC50) came to 0.153 µM.
